Data on eleven molecules can be found in ChEMBL document CHEMBL1201862, “PubChem BioAssay data set” (2004).

Among the test systems are DU-145; EKVX; HCC 2998; HT-29; M14; MCF7; MDA-MB-435; NCI-H226; NCI-H23; NCI-H460; OVCAR-3; OVCAR-5; OVCAR-8; RPMI-8226; SK-MEL-28; SN12C; SNB-19; SNB-75; UO-31; SR.
Holding throughout (assay): NCI-60 cell line screen, 48 h

Molecules are shown by their SMILES.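 96-well plates; 48 h exposure; 5 concentrations. Endpoints by linear interpolation between flanking doses. Not reached: highest tested concentration assigned. At the GI50, growth is halved.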 The source made the active and inactive calls. Rule as the data show it: active = GI50 up to about 1.1 µM and inactive = higher.

For `CN(C)C(C1=C(O)C(c2ccccc2)N(c2ccccc2)C1=O)N1CCOCC1` (stereo unspecified), the GI50 with DU-145, in the assay with EKVX, with HCC 2998, in the assay on HT-29, in the assay with M14 and in the assay on MCF7 was > 10 µM (inactive) throughout. Further, the GI50 with MDA-MB-435, with NCI-H226, with NCI-H23, in the assay with NCI-H460, with OVCAR-3 and with OVCAR-5 was > 10 µM (inactive) throughout. Besides, the GI50 in the assay on OVCAR-8, with RPMI-8226, in the assay with SK-MEL-28, with SN12C, with SNB-19 and in the assay with SNB-75 was > 10 µM (inactive) each time. Further, the GI50 in the assay with UO-31 was > 10 µM (inactive).
With `O=C1CC2(CCCc3sccc32)C(=O)N1` (stereo unspecified), the GI50 with DU-145, with EKVX, in the assay with HCC 2998, with HT-29, with M14 and with MCF7 was > 100 µM (inactive) each time. Moreover, the GI50 with MDA-MB-435, with NCI-H226, in the assay with NCI-H23, in the assay on NCI-H460, with OVCAR-3 and in the assay with OVCAR-5 was > 100 µM (inactive) throughout. Also, the GI50 in the assay with OVCAR-8, with RPMI-8226, in the assay on SK-MEL-28, with SN12C, in the assay with SNB-19 and in the assay on SNB-75 was > 100 µM (inactive) each time. Moreover, in the assay on UO-31, the GI50 was > 100 µM (inactive).
Turning to `CCOC(=O)/C(=C\NC(C)(C)C)c1nc2ccccc2o1`, the GI50 in the assay on DU-145 is 43.4 µM (inactive); with EKVX, > 100 µM (inactive); in the assay with HT-29 it was 27.7 µM (inactive); in the assay with M14 it was 48 µM (inactive); with MCF7, 29.3 µM (inactive); with MDA-MB-435, 33.3 µM (inactive). In addition, the GI50 in the assay on NCI-H226 is 20.9 µM (inactive); in the assay on NCI-H23, 34.9 µM (inactive); in the assay on NCI-H460, 25.7 µM (inactive); with OVCAR-3 it was 35.4 µM (inactive); with OVCAR-5, 60 µM (inactive); in the assay on OVCAR-8, 39 µM (inactive). Moreover, the GI50 in the assay on RPMI-8226 was 22.2 µM (inactive); with SK-MEL-28 it was 36.5 µM (inactive); with SN12C, 50.1 µM (inactive); in the assay on SNB-19, 64 µM (inactive); in the assay on SNB-75, 31.9 µM (inactive); with SR, 25.6 µM (inactive). The GI50 in the assay on UO-31 is 0.124 µM (active).
For `O=C1C(C(c2ccccc2)N2CCOCC2)=C(O)C(c2ccccc2)N1c1ccccc1` (stereo unspecified), the GI50 in the assay with DU-145, in the assay with EKVX, in the assay on HCC 2998, with HT-29, in the assay on M14 and with MCF7 was > 10 µM (inactive) each time. In addition, the GI50 in the assay on MDA-MB-435, with NCI-H226, in the assay on NCI-H23, with NCI-H460, in the assay with OVCAR-3 and in the assay with OVCAR-5 was > 10 µM (inactive) throughout. In addition, the GI50 in the assay on OVCAR-8 was > 10 µM (inactive); in the assay on RPMI-8226, > 10 µM (inactive); with SK-MEL-28, > 10 µM (inactive); in the assay on SN12C it was > 10 µM (inactive); with SNB-19 it was > 10 µM (inactive); in the assay on SNB-75, 3.58 µM (inactive). In addition, the GI50 in the assay with UO-31 was > 10 µM (inactive).
On to `Cc1cnccc1/N=N/c1ccc(N(C)C)cc1`, for which the GI50 with DU-145 was 66.8 µM (inactive); with EKVX it was 9.55 µM (inactive); in the assay with HCC 2998, 13.5 µM (inactive); in the assay on HT-29, 23.1 µM (inactive); with M14 it was 41.5 µM (inactive); in the assay with MCF7 it was 14.4 µM (inactive). Besides, the GI50 in the assay with MDA-MB-435 is 7.6 µM (inactive); with NCI-H226, 4.82 µM (inactive); in the assay on NCI-H23, 24.4 µM (inactive); in the assay with NCI-H460, 25.7 µM (inactive); in the assay on OVCAR-3, 19.6 µM (inactive); with OVCAR-5, 28 µM (inactive). The GI50 in the assay on OVCAR-8 was 22.1 µM (inactive); in the assay with RPMI-8226, 18.5 µM (inactive); in the assay on SK-MEL-28 it was 22.3 µM (inactive); in the assay with SN12C, 21.9 µM (inactive); with SNB-19, 40 µM (inactive); with SNB-75, 14.5 µM (inactive). Also, the GI50 in the assay on UO-31 was 18.1 µM (inactive).
`O=C(Nc1ccccc1)OCCN=C1c2ccccc2C(Br)C(Br)c2ccccc21` (stereo unspecified): the GI50 in the assay with DU-145 is 9.16 µM (inactive); in the assay on EKVX it was 10 µM (inactive); in the assay with HCC 2998, 14.8 µM (inactive); with HT-29 it was 5.25 µM (inactive); in the assay with M14 it was 4.34 µM (inactive); in the assay with MCF7, 5.68 µM (inactive). Besides, the GI50 in the assay on MDA-MB-435 was 7.93 µM (inactive); in the assay with NCI-H226, 12.6 µM (inactive); with NCI-H23 it was 10.4 µM (inactive); in the assay on NCI-H460, 12.1 µM (inactive); with OVCAR-3 it was 6.12 µM (inactive); in the assay on OVCAR-5 it was 16 µM (inactive). Moreover, the GI50 was 4.09 µM (inactive) with OVCAR-8; 4.37 µM (inactive) in the assay with RPMI-8226; 9.06 µM (inactive) in the assay on SK-MEL-28; 11.1 µM (inactive) with SN12C; 14.9 µM (inactive) in the assay on SNB-19; 13.3 µM (inactive) in the assay on SNB-75. In the assay on UO-31, the GI50 is 2.02 µM (inactive).
On to `CN1C(=O)C23CCCCC2CC1(c1ccccc1)S3` (stereo unspecified), for which the GI50 in the assay on DU-145 was > 100 µM (inactive); in the assay with EKVX it was > 100 µM (inactive); in the assay with HT-29 it was 73.8 µM (inactive); in the assay on M14, > 100 µM (inactive); in the assay on MCF7, 78.2 µM (inactive); with MDA-MB-435, > 100 µM (inactive). Besides, the GI50 in the assay on NCI-H226 is > 100 µM (inactive); with NCI-H23, 66.8 µM (inactive); in the assay on OVCAR-3 it was 50.9 µM (inactive); in the assay with OVCAR-5 it was > 100 µM (inactive); with OVCAR-8, > 100 µM (inactive); in the assay on RPMI-8226 it was 49.8 µM (inactive). Further, the GI50 in the assay with SK-MEL-28 was > 100 µM (inactive); in the assay on SN12C, 94.4 µM (inactive); with SNB-19, > 100 µM (inactive); in the assay with SR, 58.5 µM (inactive); with UO-31, 63 µM (inactive).
`CCOc1cc(-c2nc3ccccn3c2/N=C/c2cc([N+](=O)[O-])cc([N+](=O)[O-])c2O)ccc1O`: the GI50 in the assay on DU-145, in the assay on EKVX, in the assay with HT-29, in the assay with M14, in the assay with MCF7 and in the assay with MDA-MB-435 was > 100 µM (inactive) each time. The GI50 with NCI-H23, with NCI-H460, in the assay with OVCAR-3, in the assay with OVCAR-5, in the assay with OVCAR-8 and in the assay with RPMI-8226 was > 100 µM (inactive) each time. Besides, the GI50 in the assay with SK-MEL-28 is > 100 µM (inactive); with SN12C it was > 100 µM (inactive); with SNB-19, > 100 µM (inactive); in the assay with SNB-75, 88.1 µM (inactive); with SR it was > 100 µM (inactive); in the assay with UO-31, > 100 µM (inactive).
As for `O=C(O)C1C2C=CC(O2)C1C(=O)NCc1ccccn1` (stereo unspecified), the GI50 in the assay on DU-145, in the assay on EKVX, in the assay with HT-29, in the assay on M14, in the assay on MCF7 and in the assay on MDA-MB-435 was > 100 µM (inactive) each time. Also, the GI50 with NCI-H226, in the assay on NCI-H23, in the assay on NCI-H460, in the assay on OVCAR-3, in the assay with OVCAR-5 and with OVCAR-8 was > 100 µM (inactive) each time. In addition, the GI50 in the assay on RPMI-8226, in the assay with SK-MEL-28, in the assay on SN12C, with SNB-19, in the assay on SNB-75 and with SR was > 100 µM (inactive) each time. Besides, the GI50 in the assay with UO-31 was > 100 µM (inactive).
For `CSc1ncnc2c1ncn2CCC#N`, the GI50 with DU-145, in the assay with EKVX, in the assay on HT-29, in the assay with M14, in the assay on MCF7 and in the assay with MDA-MB-435 was > 100 µM (inactive) throughout. Also, the GI50 with NCI-H226, in the assay on NCI-H23, with NCI-H460, with OVCAR-3, in the assay on OVCAR-5 and with OVCAR-8 was > 100 µM (inactive) each time. The GI50 in the assay on RPMI-8226, in the assay on SK-MEL-28, in the assay with SN12C, with SNB-19, in the assay on SNB-75 and in the assay on SR was > 100 µM (inactive) throughout. Further, the GI50 in the assay on UO-31 is > 100 µM (inactive).
Take `CC(=O)OC1C(COC(=O)c2ccccc2)OC(Nc2ncc(-c3ccc(Br)cc3)s2)C(OC(=O)c2ccccc2)C1OC(=O)c1ccccc1` (stereo unspecified): the GI50 in the assay on DU-145, in the assay with EKVX, in the assay on HT-29, in the assay with M14, in the assay on MCF7 and in the assay on MDA-MB-435 was > 100 µM (inactive) throughout. Also, the GI50 in the assay with NCI-H226, in the assay on NCI-H23, in the assay on NCI-H460, in the assay with OVCAR-3, with OVCAR-5 and in the assay on OVCAR-8 was > 100 µM (inactive) throughout. In addition, the GI50 with RPMI-8226, in the assay on SK-MEL-28, with SN12C, with SNB-19, in the assay with SNB-75 and in the assay with SR was > 100 µM (inactive) each time. Besides, in the assay with UO-31, the GI50 is > 100 µM (inactive).
